We go through 1 compound from patent US20030079246A1, “Herbicide resistant plants” (priority 1999, published 2003).

This test concerns the target mutant form of rice EPSPS. Nature of the test: EPSPS enzyme assay, inhibition of purified mutant rice EPSPS by glyphosate. Type of test: biochemical. The source says: The resultant products are gel purified and placed into a tube in eqi-molar concentrations to serve as a template for another round of PCRs with the rice 5′ and 3′ oligos. The resultant products are cloned into pCRBlunt II using Invitrogens Zero Blunt TOPO kit. It is confirmed that the DNA sequence of the insert and its predicted open reading frame correspond to that of the predicted mature chloroplastic rice EPSPS protein (with the exception of the presence of an initiating Met) and also that the desired changes (the specific mutation of T to I and P to S at specific positions in the EPSPS sequence) are encoded. The thus cloned and verified rice epsps sequence is excised using Nde 1 and Xho 1 and the purified fragment cloned into pET24a (Novagen) digested similarly. The recombinant clones are introduced into BL21 (DE3), a codon optimised RP strain of E.coli supplied by Strategene. The EPSPS protein is expressed in this strain following addition of 1 mM IPTG to the fermenter medium (LB supplemented with 100 ug/ml Kanamycin). […]

SMILES strings stand for the structures. Counter-ions that a name gives are not always drawn.

Where the note is “at 40 μM PEP, 2 mM shikimate-3-Pi”, `O=C(O)CNCP(=O)(O)O` [potassium salt of glyphosate] registered a 50% inhibitory concentration (IC50) of about 600 µM. In addition, for the setting “mutant EPSPS, read-out: estimated Ki value”, the Ki was about 200 µM.
